The target of experiment [1] is T1, Sirt2 (Homo sapiens, UniProt Q8IXJ6).
T1 construct: the respective sirtuin (Sirt1_134–747, Sirt2_56–356, or Sirt3_118–395) was mixed with; made in house; host or cells: Escherichia coli BL21 Star (DE3)
T1 sequence (Q8IXJ6 56-356): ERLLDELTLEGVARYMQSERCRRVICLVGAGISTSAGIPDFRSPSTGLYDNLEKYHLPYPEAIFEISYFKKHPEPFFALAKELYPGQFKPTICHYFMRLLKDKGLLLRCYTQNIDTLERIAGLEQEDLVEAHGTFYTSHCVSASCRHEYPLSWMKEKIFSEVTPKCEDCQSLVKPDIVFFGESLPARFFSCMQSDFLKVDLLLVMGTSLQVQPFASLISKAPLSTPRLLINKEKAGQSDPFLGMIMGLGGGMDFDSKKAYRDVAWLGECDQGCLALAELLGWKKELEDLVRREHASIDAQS
The experiment in a line: Sirt2 in vitro deacetylation assay (ZMAL, trypsin-based fluorescence). Type of experiment: biochemical. The conditions noted are these: deacetylation, mean ± SD.

Experiment [2] concerns the target T2, Sirt1 (Homo sapiens, UniProt Q96EB6).
T2 construct: the respective sirtuin (Sirt1_134–747, Sirt2_56–356, or Sirt3_118–395) was mixed with; made in house; host or cells: Escherichia coli BL21 Star (DE3)
T2 sequence (Q96EB6 134-747): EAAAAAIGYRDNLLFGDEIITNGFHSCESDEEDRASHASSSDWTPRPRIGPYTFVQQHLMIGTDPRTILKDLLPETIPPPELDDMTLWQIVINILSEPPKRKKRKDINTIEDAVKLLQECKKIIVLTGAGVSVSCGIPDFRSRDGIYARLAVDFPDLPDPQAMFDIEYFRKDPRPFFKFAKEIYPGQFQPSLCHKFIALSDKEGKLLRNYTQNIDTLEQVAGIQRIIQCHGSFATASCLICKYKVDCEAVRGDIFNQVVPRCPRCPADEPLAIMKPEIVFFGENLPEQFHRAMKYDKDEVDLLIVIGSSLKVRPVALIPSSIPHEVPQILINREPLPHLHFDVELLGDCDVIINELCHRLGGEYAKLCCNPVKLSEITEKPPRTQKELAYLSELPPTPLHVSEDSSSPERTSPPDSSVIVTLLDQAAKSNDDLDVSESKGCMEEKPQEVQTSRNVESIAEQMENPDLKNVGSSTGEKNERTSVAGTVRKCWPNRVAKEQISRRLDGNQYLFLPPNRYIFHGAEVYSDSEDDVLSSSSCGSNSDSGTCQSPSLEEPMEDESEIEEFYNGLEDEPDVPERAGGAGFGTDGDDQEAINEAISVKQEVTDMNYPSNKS
The experiment in a line: Sirt1 in vitro deacetylation assay (ZMAL). Type of experiment: biochemical.

For experiment [3], the target named is T3, Sirt3 (Homo sapiens, UniProt Q9NTG7).
T3 construct: the respective sirtuin (Sirt1_134–747, Sirt2_56–356, or Sirt3_118–395) was mixed with; made in house; host or cells: Escherichia coli BL21 Star (DE3)
T3 sequence (Q9NTG7 118-395): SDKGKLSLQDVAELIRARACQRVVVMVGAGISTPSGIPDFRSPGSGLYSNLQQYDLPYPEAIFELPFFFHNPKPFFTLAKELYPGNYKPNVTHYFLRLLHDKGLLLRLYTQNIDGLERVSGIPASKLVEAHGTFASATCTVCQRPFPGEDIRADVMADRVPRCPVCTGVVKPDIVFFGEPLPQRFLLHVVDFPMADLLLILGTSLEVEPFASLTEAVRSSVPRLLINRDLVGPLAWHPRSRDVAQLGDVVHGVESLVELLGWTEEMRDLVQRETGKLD
The experiment in a line: Sirt3 in vitro deacetylation assay (ZMAL). It is filed as biochemical.

Experiment [4] addresses T4, HDAC1 (Homo sapiens, UniProt Q13547).
T4 construct: purchased BPS Bioscience 50051
The experiment in a line: HDAC1 in vitro deacetylation assay (ZMAL). Particulars: deacetylation, mean ± SD. It is filed as biochemical.

Experiment [5] has as its target T5, HDAC2 (Homo sapiens, UniProt Q92769).
T5 construct: purchased BPS Bioscience 50052
The experiment in a line: HDAC2 in vitro deacetylation assay (ZMAL). Type of experiment: biochemical. Particulars: mean ± SD.

For experiment [6], the target named is T6, HDAC3/NcoR2 (Homo sapiens, UniProt O15379).
T6 construct: purchased BPS Bioscience 50003
T6 sequence (O15379 whole entry): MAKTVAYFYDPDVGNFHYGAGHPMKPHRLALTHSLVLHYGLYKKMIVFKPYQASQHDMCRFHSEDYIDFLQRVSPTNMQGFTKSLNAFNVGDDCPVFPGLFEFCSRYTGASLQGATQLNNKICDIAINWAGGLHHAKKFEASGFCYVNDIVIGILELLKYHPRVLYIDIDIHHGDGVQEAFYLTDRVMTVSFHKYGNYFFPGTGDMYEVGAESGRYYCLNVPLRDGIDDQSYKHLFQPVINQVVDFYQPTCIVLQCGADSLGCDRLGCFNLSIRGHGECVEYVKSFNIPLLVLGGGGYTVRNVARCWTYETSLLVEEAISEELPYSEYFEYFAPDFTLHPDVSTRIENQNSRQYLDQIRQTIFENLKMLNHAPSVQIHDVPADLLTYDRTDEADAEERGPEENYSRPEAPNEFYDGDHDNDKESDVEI
T6 sequence (Q9Y618 395-489 partner limits assumed): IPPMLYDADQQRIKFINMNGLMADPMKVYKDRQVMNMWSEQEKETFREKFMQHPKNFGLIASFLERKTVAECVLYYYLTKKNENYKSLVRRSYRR
The experiment in a line: HDAC3 in vitro deacetylation assay (ZMAL). Type of experiment: biochemical. The conditions noted are these: mean ± SD.

The target of experiment [7] is T7, Sirt2 (demyristoylation) (Homo sapiens, UniProt Q8IXJ6).
T7 construct: the respective sirtuin (Sirt1_134–747, Sirt2_56–356, or Sirt3_118–395) was mixed with; made in house; host or cells: Escherichia coli BL21 Star (DE3)
T7 sequence (Q8IXJ6 56-356): T1 sequence (Q8IXJ6 56-356)
The experiment in a line: Discontinuous Sirt2 demyristoylation assay (ZMML substrate). It is filed as biochemical. The conditions noted are these: mean ± SD.

The subject of experiment [8] is HGC27 gastric carcinoma cells. The experiment in a line: Cell viability assay (MTS) HGC27. Type of experiment: cell-based. Particulars: Homo sapiens, HGC-27; 72 h, MTS, mean ± SD. The method, then:
(§1) Cell viability assays of HGC27 and PC-3M-luc cells were performed by using the Celltiter 96 Aqueous Nonradioactive Proliferation Assay (Promega). Cells were seeded in sterile 96-well plates at a density of 2000 cells per well and incubated overnight at 37 °C and 5% CO2. Compound or vehicle were added to a final concentration of 0.5% DMSO. […] Cells were seeded at densities of 10^4 cells/well for W1 cells or 2 × 10^3 cells/well for MCF-7 cells. Tests were performed in 96-well plates (Sarstedt AG, Nümbrecht, Germany). After incubation overnight, cells were supplemented with half logarithmic dilution series of the indicated compounds and DPBS (PAN Biotech GmbH, Aidenbach, Germany) as control. Then 72 h after addition of cytostatic treatment, the MTT solution (20 μL, 5 mg/mL) was added into the wells for 1 h at 37 °C and 5% CO2 until formazan crystals were formed. The supernatant was removed, and the cells were dissolved in 200 μL of DMSO. Absorption was analyzed at 570 nm, with background subtraction at 690 nm, using a plate reader (Thermomultiscan EX, Thermo, Schwerte, Germany). Cell viability was then determined by nonlinear regression and a four-parameter logistic equation with variable hill slope. […] The significance of the difference of the effects of 33 and 4 + 57 was determined by using an unpaired, two-tailed t test with Welch’s correction, implemented in GraphPad Prism 8.4.0 (GraphPad, USA). Statistical significance was accepted if p < 0.05. Asterisks indicate *p < 0.05, **p < 0.01.

Experiment [9] has as its system W1 ovarian cancer cells. The experiment in a line: Cell viability assay (MTT) W1. The conditions noted are these: 72 h, @ 50 μM. Type of experiment: cell-based. On the procedure:
as §1

The test system of experiment [10] is MCF-7 breast cancer cells. The experiment in a line: Cell viability assay (MTT) MCF-7. Type of experiment: cell-based. The conditions noted are these: 72 h, @ 50 μM. On the procedure: as §1
Experiment [11] has as its system PC-3M-luc prostate cancer cells. The experiment in a line: Cell viability assay (MTS) PC-3M-luc. It is filed as cell-based. Particulars: 72 h, @ 50 μM. The method, then: as §1
Experiment [12] concerns the target T8, HDAC6 (Homo sapiens, UniProt Q9UBN7).
T8 sequence (Q9UBN7 1-1215): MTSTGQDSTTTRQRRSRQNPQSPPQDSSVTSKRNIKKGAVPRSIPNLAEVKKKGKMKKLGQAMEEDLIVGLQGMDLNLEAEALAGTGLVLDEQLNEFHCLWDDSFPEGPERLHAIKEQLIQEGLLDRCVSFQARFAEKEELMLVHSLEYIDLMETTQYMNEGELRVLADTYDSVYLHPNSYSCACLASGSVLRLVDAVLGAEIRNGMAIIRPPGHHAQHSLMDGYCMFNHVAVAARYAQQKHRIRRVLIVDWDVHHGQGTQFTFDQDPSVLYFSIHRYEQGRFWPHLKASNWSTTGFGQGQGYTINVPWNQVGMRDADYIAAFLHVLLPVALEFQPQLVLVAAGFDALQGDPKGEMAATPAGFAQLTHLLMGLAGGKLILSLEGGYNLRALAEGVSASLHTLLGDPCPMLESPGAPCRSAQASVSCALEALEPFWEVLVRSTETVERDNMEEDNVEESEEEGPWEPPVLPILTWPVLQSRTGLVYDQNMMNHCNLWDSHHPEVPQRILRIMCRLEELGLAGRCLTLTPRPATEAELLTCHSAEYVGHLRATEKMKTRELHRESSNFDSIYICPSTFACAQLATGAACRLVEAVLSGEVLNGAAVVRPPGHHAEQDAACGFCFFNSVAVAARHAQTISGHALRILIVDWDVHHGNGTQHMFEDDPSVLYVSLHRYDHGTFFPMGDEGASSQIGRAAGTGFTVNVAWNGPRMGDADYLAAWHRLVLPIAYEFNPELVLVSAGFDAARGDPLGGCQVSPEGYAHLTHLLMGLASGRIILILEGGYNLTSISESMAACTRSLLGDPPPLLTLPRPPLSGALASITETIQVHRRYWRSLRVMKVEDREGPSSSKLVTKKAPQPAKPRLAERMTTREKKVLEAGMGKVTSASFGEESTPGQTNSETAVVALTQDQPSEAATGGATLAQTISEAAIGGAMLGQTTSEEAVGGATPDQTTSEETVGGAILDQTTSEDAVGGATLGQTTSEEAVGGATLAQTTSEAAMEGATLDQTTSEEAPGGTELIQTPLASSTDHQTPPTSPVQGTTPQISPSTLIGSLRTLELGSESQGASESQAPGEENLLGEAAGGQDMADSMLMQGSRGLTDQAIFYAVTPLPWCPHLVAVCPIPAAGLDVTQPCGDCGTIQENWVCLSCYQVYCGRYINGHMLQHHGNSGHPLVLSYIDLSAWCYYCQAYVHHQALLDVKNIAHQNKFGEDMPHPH
The experiment in a line: HDAC6 in vitro deacetylation assay (ZMAL). On the set-up: purchased BPS Bioscience 50006. It is filed as biochemical. The conditions noted are these: deacetylation, mean ± SD.

Each structure is given as a SMILES string. Bounds are passed on as bounds.

A word on the IC50: it is the concentration needed to halve the response being measured. The low end stands for greater potency, the high end for weaker potency. What is called inhibition is the change of the read-out against control, counted positive when it falls. High values mean strong suppression, low ones little suppression. The term EC50 denotes the concentration that produces a half-maximal response.

T4 sequence (Q13547 whole entry): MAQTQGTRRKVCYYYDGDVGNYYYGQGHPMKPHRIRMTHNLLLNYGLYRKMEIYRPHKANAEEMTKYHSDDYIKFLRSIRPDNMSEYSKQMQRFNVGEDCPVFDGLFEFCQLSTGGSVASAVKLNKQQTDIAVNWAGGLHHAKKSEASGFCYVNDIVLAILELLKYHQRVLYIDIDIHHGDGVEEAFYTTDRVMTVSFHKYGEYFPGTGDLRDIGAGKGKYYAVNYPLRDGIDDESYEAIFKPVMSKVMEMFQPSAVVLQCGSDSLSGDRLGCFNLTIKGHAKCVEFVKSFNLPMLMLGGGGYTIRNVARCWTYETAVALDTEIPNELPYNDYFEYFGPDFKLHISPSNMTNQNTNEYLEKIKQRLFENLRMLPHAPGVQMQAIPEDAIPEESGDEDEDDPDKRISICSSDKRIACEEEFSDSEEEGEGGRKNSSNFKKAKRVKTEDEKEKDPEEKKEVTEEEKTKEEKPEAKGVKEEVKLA
T5 sequence (Q92769 whole entry): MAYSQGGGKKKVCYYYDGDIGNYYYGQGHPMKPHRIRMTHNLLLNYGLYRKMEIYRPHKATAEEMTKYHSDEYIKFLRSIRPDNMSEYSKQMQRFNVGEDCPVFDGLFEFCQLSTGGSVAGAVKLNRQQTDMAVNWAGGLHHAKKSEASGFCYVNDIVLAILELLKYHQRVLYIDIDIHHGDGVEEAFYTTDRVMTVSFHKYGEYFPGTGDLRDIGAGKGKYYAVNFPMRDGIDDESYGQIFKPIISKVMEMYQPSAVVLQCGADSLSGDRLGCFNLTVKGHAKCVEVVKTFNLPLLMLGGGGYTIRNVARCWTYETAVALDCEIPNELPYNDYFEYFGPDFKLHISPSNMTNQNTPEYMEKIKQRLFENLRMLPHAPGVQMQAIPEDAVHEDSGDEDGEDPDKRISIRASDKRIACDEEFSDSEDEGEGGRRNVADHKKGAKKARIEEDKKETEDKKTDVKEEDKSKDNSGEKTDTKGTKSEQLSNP

As for `Cc1cc(C)nc(SCC(=O)Nc2ncc(Cc3cccc(OCc4cn(CCOCCOCCOCCOCCC(=O)Nc5ccc(C(=O)NCCCCCCC(=O)NO)cc5)nn4)c3)s2)n1` [Compound 46, 4-(1-(4-((3-((2-(2-((4,6-Dimethylpyrimidin-2-yl)thio)acetamido)thiazol-5-yl)methyl)phenoxy)methyl)-1H-1,2,3-triazol-1-yl)-3,6,9,12-tetraoxapentadecan-15-amido)-N-(7-(hydroxyamino)-7-oxoheptyl)benzamide], the IC50 in experiment [1] is 480 ± 70 nM; in experiment [4], 210 ± 30 nM; in [5] it was 340 ± 20 nM; in [6], 140 ± 10 nM; in [7], 13200 ± 1900 nM; in experiment [12], 5 ± 0.5 nM. In addition, the inhibition at 20 µM in experiment [2] and in [3] was < 15% throughout. This compound yielded an EC50 in experiment [8] of 17200 ± 1000 nM. The W1 cellular effect entry in experiment [9] is on record as “ni ^b (ni = no inhibition (cellular effect <20% @ 50 μM))”. In addition, in [10], the MCF-7 cellular effect result is “ni ^b (ni = no inhibition (cellular effect <20% @ 50 μM))”. The PC-3M-luc cellular effect result in experiment [11] is “ni ^b (ni = no inhibition (cellular effect <20% @ 50 μM))”.
